Results taken from patent publication US12370235B2, “Synthetic, non-natural antimicrobial peptides inspired by Staphylococcus auricularis delta toxin” (University of Saskatchewan, priority 2021, dated 2025).
Ends that are not written are not given here.

Tests used:
[1] = system: Mannheimia haemolytica ATCC 33393; assay: MIC, broth dilution; assay type: cell-based; details: Table 11; highest concentration 25 μg/mL
Experimental: (§1) MIC determination. MICs were measured using peptides with 95% purity. For bacterial studies, cation-adjusted Mueller Hinton (MH) broth was used as the growth medium whereas Yeast Peptone Dextrose (YPD; 10 g/L yeast extract, 20 g/L peptone, 20 g/L dextrose) was used for Candida spp. and other yeast. Microorganisms were diluted to an optical density of […] in MH or YPD broth and a 180 μl volume was mixed with 20 μl of peptide arrayed as a 2-fold dilution series in a flat-bottom 96-well microtitre plate. A control was performed using 20 μl of sterile water. Plates were incubated as standing cultures overnight at 37° C.
(§2) Determination of minimum inhibitory concentrations. The MICs were measured for bioactive peptides identified from the initial screen. For bacterial studies, cation-adjusted Mueller Hinton (MH) broth was used as the growth medium whereas YPD was used for C. albicans. Bacterial cultures were diluted to a OD value of 6×10^−4 in MH broth and a 180 μl volume was mixed with 20 μl of peptide arrayed as 2-fold dilution series in a 96-well plate. For the positive control, 20 μl of sterile water was used. Plates were incubated as standing cultures overnight at 37° C. The lowest peptide concentration that resulted no observed microbial growth after an overnight treatment was defined as the MIC.
The ability of STIP3 variants to inhibit the growth of Mannheimia haemolytica ATCC 33393 was evaluated. This included an alanine scan of STIP3-1 (FIG. 8 & Table 10) as well as 30 rationally-designed STIPs that were evaluated in the preceding Examples against other pathogens (Table 11). Substitutions at a greater number of sites were tolerated in the context of antimicrobial activity. Moreover, the inclusion of basic natural and unnatural amino acids (e.g. lysine, ornithine, and arginine) at positions 3, 4 and 11 (i.e. X1, X2, and X4 of SEQ ID NO: 32) to afford a more uniformly cationic peptide increased activity against M. haemolytica.

[2] = system: S. aureus ATCC BAA-2313 (MRSA SCCmec type XI); assay: MIC, broth dilution; assay type: cell-based, Staphylococcus aureus; details: Table 5; STIP3 variants, highest concentration 100 μg/mL
Experimental: as §1, §2

[3] = system: S. aureus ATCC BAA-1683 (MRSA SCCmec type IV); assay: MIC, broth dilution; assay type: cell-based, Staphylococcus aureus; details: Table 5; STIP3 variants, highest concentration 100 μg/mL
Experimental: as §1, §2

[4] = system: S. aureus ATCC 33592 (MRSA SCCmec type III); assay: MIC, broth dilution; assay type: cell-based, Staphylococcus aureus; details: Table 5; STIP3 variants, highest concentration 100 μg/mL
Experimental: as §1, §2

[5] = system: S. aureus ATCC BAA-42 (MRSA SCCmec type VI); assay: MIC, broth dilution; assay type: cell-based, Staphylococcus aureus; details: Table 5; STIP3 variants, highest concentration 100 μg/mL
Experimental: as §1, §2

[6] = system: S. aureus ATCC 29213; assay: MIC, broth dilution; assay type: cell-based, Staphylococcus aureus; details: Table 5; STIP3 variants, highest concentration 100 μg/mL
Experimental: as §1, §2

[7] = system: S. aureus ATCC BAA-44 (MRSA SCCmec type I); assay: MIC, broth dilution; assay type: cell-based, Staphylococcus aureus; details: Table 5; STIP3 variants, highest concentration 100 μg/mL
Experimental: as §1, §2

[8] = system: S. aureus ATCC BAA-41 (MRSA SCCmec type II); assay: MIC, broth dilution; assay type: cell-based, Staphylococcus aureus; details: Table 5; STIP3 variants, highest concentration 100 μg/mL
Experimental: as §1, §2

[9] = system: S. aureus ATCC BAA-2094 (MRSA SCCmec type V); assay: MIC, broth dilution; assay type: cell-based, Staphylococcus aureus; details: Table 5; STIP3 variants, highest concentration 100 μg/mL
Experimental: as §1, §2

[10] = system: Candida duobushaemulonii AR 394; assay: MIC, YPD broth, CDC and FDA AR Candida isolate panel; assay type: cell-based; details: Table 9 below the line: only 200 or 100 μg/mL tested; values reported as 100 are ≤100 μg/mL
Experimental: as §1

[11] = system: Saccharomyces cerevisiae AR 400; assay: as above; assay type: cell-based; details: Table 9 below the line: only 200 or 100 μg/mL tested; values reported as 100 are ≤100 μg/mL
Experimental: as §1

[12] = system: Candida duobushaemulonii AR 392; assay: as above; assay type: cell-based; details: Table 9 below the line: only 200 or 100 μg/mL tested; values reported as 100 are ≤100 μg/mL
Experimental: as §1

[13] = system: Saccharomyces cerevisiae AR 399; assay: as above; assay type: cell-based; details: Table 9 below the line: only 200 or 100 μg/mL tested; values reported as 100 are ≤100 μg/mL
Experimental: as §1

[14] = system: Candida haemulonii AR 393; assay: as above; assay type: cell-based; details: Table 9 below the line: only 200 or 100 μg/mL tested; values reported as 100 are ≤100 μg/mL
Experimental: as §1

[15] = system: Candida duobushaemulonii AR 391; assay: as above; assay type: cell-based; details: Table 9 below the line: only 200 or 100 μg/mL tested; values reported as 100 are ≤100 μg/mL
Experimental: as §1

[16] = system: Kodamae ohmeri AR 396; assay: as above; assay type: cell-based; details: Table 9 below the line: only 200 or 100 μg/mL tested; values reported as 100 are ≤100 μg/mL
Experimental: as §1

[17] = system: Candida haemulonii AR 395; assay: as above; assay type: cell-based; details: Table 9 below the line: only 200 or 100 μg/mL tested; values reported as 100 are ≤100 μg/mL
Experimental: as §1

[18] = system: Candida krusei AR 397; assay: as above; assay type: cell-based; details: Table 9 below the line: only 200 or 100 μg/mL tested; values reported as 100 are ≤100 μg/mL
Experimental: as §1

[19] = system: Candida lusitaniae AR 398; assay: as above; assay type: cell-based; details: Table 9 below the line: only 200 or 100 μg/mL tested; values reported as 100 are ≤100 μg/mL
Experimental: as §1

[20] = system: C. albicans MYA-2876; assay: MIC, YPD broth; assay type: cell-based, Candida albicans; details: Table 8
Experimental: as §1, §2

Row | Sequence | MIC (μg/mL) M. haemolytica [1] | MIC S. aureus ATCC BAA 2313 (XI) [2] [µg/mL] | MIC S. aureus ATCC BAA 1683 (IV) [3] | MIC S. aureus ATCC 33592 (III) [4] [µg/mL] | MIC S. aureus ATCC BAA 42 (VI) [5] [µg/mL] | MIC S. aureus ATCC 29213 [6] [µg/mL] | MIC S. aureus ATCC BAA 44 (I) [7] [µg/mL] | MIC S. aureus ATCC BAA 41 (II) [8] [µg/mL] | MIC S. aureus ATCC BAA 2094 (V) [9] [µg/mL] | MIC (μg/mL) Candida duobushaemulonii AR 394 [10] | MIC (μg/mL) Saccharomyces cerevisiae AR 400 [11] [µg/mL] | MIC (μg/mL) Candida duobushaemulonii AR 392 [12] | MIC (μg/mL) Saccharomyces cerevisiae AR 399 [13] | MIC (μg/mL) Candida haemulonii AR 393 [14] | MIC (μg/mL) Candida duobushaemulonii AR 391 [15] | MIC (μg/mL) Kodamae ohmeri AR 396 [16] | MIC (μg/mL) Candida haemulonii AR 395 [17] | MIC (μg/mL) Candida krusei AR 397 [18] | MIC (μg/mL) Candida lusitaniae AR 398 [19] | MIC C. albicans MYA-2876 [20]
1 | TVGGLVKWILAAVKKFA [STIP3-12, TVGGLVKWILAAVKKFA] | 25 µg/mL | 25 | 25 µg/mL | 25 | 25 | 25 | 25 | 25 | 50 | > (values below the line were determined using two concentrations of peptide 200 or 100 μg/mL) | ≤ 100 | > (values below the line were determined using two concentrations of peptide 200 or 100 μg/mL) | ≤ 100 µg/mL | > (values below the line were determined using two concentrations of peptide 200 or 100 μg/mL) | > (values below the line were determined using two concentrations of peptide 200 or 100 μg/mL) | > (values below the line were determined using two concentrations of peptide 200 or 100 μg/mL) | > (values below the line were determined using two concentrations of peptide 200 or 100 μg/mL) | ≤ 100 µg/mL | ≤ 100 µg/mL | 100 µg/mL
2 | TVAGLVKWILATVKKFA [STIP3-15, TVAGLVKWILATVKKFA] | 25 µg/mL | 50 | 25 µg/mL | 12.5 | 50 | 25 | 25 | 50 | 25 | > (values below the line were determined using two concentrations of peptide 200 or 100 μg/mL) | ≤ 100 | > (values below the line were determined using two concentrations of peptide 200 or 100 μg/mL) | ≤ 100 µg/mL | > (values below the line were determined using two concentrations of peptide 200 or 100 μg/mL) | > (values below the line were determined using two concentrations of peptide 200 or 100 μg/mL) | ≤ 100 µg/mL | > (values below the line were determined using two concentrations of peptide 200 or 100 μg/mL) | ≤ 100 µg/mL | ≤ 100 µg/mL | 25 µg/mL
3 | TVGGLVKWILDWVKKFA [STIP3-10, TVGGLVKWILDWVKKFA] | > (> symbol indicates that no inhibition was observed at the highest concentration of peptide tested: 25 μg/mL) | 50 | > (no inhibition was observed at the highest concentration of peptide tested: 100 μg/mL for the STIP3 variants) | 100 | 25 | 100 | 200 | 100 | 100 | > (values below the line were determined using two concentrations of peptide 200 or 100 μg/mL) | ≤ 100 | > (values below the line were determined using two concentrations of peptide 200 or 100 μg/mL) | > (values below the line were determined using two concentrations of peptide 200 or 100 μg/mL) | > (values below the line were determined using two concentrations of peptide 200 or 100 μg/mL) | > (values below the line were determined using two concentrations of peptide 200 or 100 μg/mL) | > (values below the line were determined using two concentrations of peptide 200 or 100 μg/mL) | > (values below the line were determined using two concentrations of peptide 200 or 100 μg/mL) | > (values below the line were determined using two concentrations of peptide 200 or 100 μg/mL) | > (values below the line were determined using two concentrations of peptide 200 or 100 μg/mL) | 50 µg/mL
4 | TVGVLVKWILDTVKKFA [STIP3-8, TVGVLVKWILDTVKKFA] | > (> symbol indicates that no inhibition was observed at the highest concentration of peptide tested: 25 μg/mL) | 100 | > (no inhibition was observed at the highest concentration of peptide tested: 100 μg/mL for the STIP3 variants) | 100 | 100 | 100 | 100 | 100 | 100 | > (values below the line were determined using two concentrations of peptide 200 or 100 μg/mL) | ≤ 100 | > (values below the line were determined using two concentrations of peptide 200 or 100 μg/mL) | ≤ 100 µg/mL | > (values below the line were determined using two concentrations of peptide 200 or 100 μg/mL) | > (values below the line were determined using two concentrations of peptide 200 or 100 μg/mL) | > (values below the line were determined using two concentrations of peptide 200 or 100 μg/mL) | > (values below the line were determined using two concentrations of peptide 200 or 100 μg/mL) | ≤ 100 µg/mL | 180 µg/mL | > (> symbol indicates that no inhibition was observed at the highest concentration of peptide tested: 100 μg/mL)
